{
  "source": "patent EP2520297A1",
  "about": "“Rubreserine and its derivates with antiparasitic activity” (Commissariat à l'Énergie Atomique et aux Énergies …, priority 2011, dated 2012)",
  "key": {"Toxoplasma gondii": {"tested_on": "Toxoplasma gondii", "settings": "read-out: IC50 generally reported in the literature; P. Meneceur, Antimicrob. Agents Chemother. 52 (2008); cited from earlier work"}, "[1]": {"tested_on": "Toxoplasma gondii tachyzoites (RH-YFP2 strain)", "experiment": "Toxoplasma gondii invasion assay in human fibroblasts", "assay_type": "cell-based", "settings": "for IC50: Toxoplasma gondii, Fibroblast, calculated from the curves of Figures 3A and 3B (invasion and intracellular replication)", "description": "(§1) Toxoplasma gondii tachyzoites (RH-YFP2 strain) were propagated in human foreskin fibroblasts (HFFs). Human cells were grown in DMEM supplemented with 100 U/mL penicillin, […] streptomycin, 2 mM glutamine, and 10% FBS (Gibco). To obtain extracellular parasites, host cells were forced through a 26.5 gauge needle, and then the released parasites were purified by filtration through a 3 µm polycarbonate membrane before use.\nFor the invasion assay, RH-YFP2 parasites were incubated for 5 hours with the different drugs. Then 10^6 parasites/well were centrifuged for 30 seconds at 1300 rpm on HFF monolayers to synchronize invasion and wells were incubated for 15 minutes in a water bath at 37°C. Wells were washed three times with cold PBS to eliminate extracellular parasites and cells were fixed in 2.5% formaldehyde/PBS for 30 minutes and stored in PBS at 4°C until staining. To distinguish intracellular from extracellular parasites, cells were incubated with the primary antibody mAb Tg05-54 to detect the major Toxoplasma surface protein SAG1 (TgSAG1), then with Texas Red-conjugated goat anti-mouse secondary antibody (Molecular Probes). […] Nuclei were stained with Hoechst 33258 (Molecular Probes). To determine the number of intracellular parasites, 12 randomly selected fields were counted per well and per experiment with a Zeiss Axioplan 2 microscope equipped for epifluorescence and phase-contrast. Invasion was expressed as % of the number of intracellular parasites recorded in non-treated cells."}, "ADCS": {"target": "ADCS (Escherichia coli, UniProt P05041)", "sequence (P05041 whole entry)": "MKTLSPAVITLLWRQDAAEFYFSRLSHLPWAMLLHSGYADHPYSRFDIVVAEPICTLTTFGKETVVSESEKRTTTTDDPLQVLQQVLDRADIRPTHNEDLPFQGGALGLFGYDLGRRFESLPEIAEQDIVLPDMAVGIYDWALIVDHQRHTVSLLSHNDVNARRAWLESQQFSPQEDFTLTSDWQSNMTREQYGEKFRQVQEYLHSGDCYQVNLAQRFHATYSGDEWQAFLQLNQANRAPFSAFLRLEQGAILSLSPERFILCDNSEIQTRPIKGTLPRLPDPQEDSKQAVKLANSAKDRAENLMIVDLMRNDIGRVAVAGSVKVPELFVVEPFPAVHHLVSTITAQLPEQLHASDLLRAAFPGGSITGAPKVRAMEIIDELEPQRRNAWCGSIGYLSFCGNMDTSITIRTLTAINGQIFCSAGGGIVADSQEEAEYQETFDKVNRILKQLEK", "settings": "purified enzyme; M. C. Kozlowski et al., J. Am. Chem. Soc. 117 (1995); cited from earlier work"}, "[2]": {"target": "T1, recombinant Arabidopsis thaliana GAT-ADCS (Arabidopsis thaliana, UniProt Q8LPN3)", "T1 construct": "made in house", "T1 sequence (Q8LPN3 46-919)": "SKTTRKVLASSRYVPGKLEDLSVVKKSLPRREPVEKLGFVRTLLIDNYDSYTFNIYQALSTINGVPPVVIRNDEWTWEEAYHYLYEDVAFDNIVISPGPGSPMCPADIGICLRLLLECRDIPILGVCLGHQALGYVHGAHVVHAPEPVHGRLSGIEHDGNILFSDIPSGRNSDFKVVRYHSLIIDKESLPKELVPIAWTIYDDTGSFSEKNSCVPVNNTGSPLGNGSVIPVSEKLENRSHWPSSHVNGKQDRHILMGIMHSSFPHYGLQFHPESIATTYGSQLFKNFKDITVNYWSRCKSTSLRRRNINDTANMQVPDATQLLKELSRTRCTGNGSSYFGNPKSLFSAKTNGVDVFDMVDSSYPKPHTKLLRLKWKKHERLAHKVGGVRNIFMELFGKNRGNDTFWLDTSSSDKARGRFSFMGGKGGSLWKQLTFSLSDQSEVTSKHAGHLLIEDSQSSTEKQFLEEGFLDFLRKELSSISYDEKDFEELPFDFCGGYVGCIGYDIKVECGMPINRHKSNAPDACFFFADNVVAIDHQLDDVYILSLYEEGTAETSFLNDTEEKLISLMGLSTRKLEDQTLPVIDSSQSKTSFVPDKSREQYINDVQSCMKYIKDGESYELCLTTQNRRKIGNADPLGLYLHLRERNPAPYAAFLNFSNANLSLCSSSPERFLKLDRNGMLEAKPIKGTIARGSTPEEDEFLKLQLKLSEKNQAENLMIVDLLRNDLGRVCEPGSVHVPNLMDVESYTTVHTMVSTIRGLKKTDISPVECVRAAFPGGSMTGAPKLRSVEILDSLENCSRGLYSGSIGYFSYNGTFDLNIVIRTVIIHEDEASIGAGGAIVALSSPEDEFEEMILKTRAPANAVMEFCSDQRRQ", "experiment": "Determination of GAT-ADCS activities (glutamate or pABA production, fluorescence)", "assay_type": "biochemical", "description": "Both proteins were expressed and purified as described in the publication of D. Camara et al., Archives of Biochemistry and Biophysics 505 (2011) 83-90.\nGAT-ADCS activity can be determined by measuring the production of either glutamate or pABA. Standard assays contained 100 mM Tris/HCl (pH 8.0), 5 mM MgCl2, 5% V/V glycerol, 0 to 0.5 mM L-glutamine, 0.1 mM chorismate, 9 yg ml^-1 (90 nM) of the recombinant Arabidopsis thaliana GAT-ADCS and either 1 mM NAD and an excess of glutamate deshydrogenase (GDH) for glutamate determination, or an excess of Escherichia coli ADCL (20 µg ml^-1, 600 nM) for pABA determination. Reactions (final volume 80 µl) were run in the wells of a 96 well microplate (Greiner) and changes in fluorescence were continuously monitored with a microplate scanning spectrophotometer Safir 2 (Tecan). The glutamate production was followed by the fluorescence emission of NADH at 450 nm (excitation 340 nm). The pABA production was directly followed by the increase of the fluorescence emission at 340 nm (excitation 290 nm).\nThe equipment involved an automated screening station (Tecan Genesis 2000, Lyon, France), including a microplate reader. The platform is controlled by software for driving of serial devices and assays scheduling (Tecan Gemini 4.2 and FACTS 4.82 software). The library of compounds was purchased from The Prestwick Chemical Library®. This library contains 1200 molecules, 100% being marketed drugs, supplied at a 5 mM concentration in DMSO. The final concentration used in the enzymatic assay was 100 µM, and it was verified in separate control experiments that 2% DMSO had no effect on the activity. The enzymatic test used to determine GAT-ADCS activity in primary and secondary screenings was based on glutamate determination, as described above. After optimization of the assay, the Z' factor was comprised between 0.68 and 0.84."}, "[3]": {"tested_on": "Toxoplasma gondii tachyzoites (RH-YFP2 strain)", "experiment": "Toxoplasma gondii intracellular proliferation assay", "assay_type": "cell-based", "description": "as §1\nFor the proliferation assay, 10^5 parasites/well were centrifuged on HFF monolayers for 30 seconds at 1300 rpm and incubated for 15 minutes in a water bath at 37°C for invasion. Wells were then washed three times with PBS to eliminate extracellular parasites and drugs were added. After 24 hours at 37°C in a humidified atmosphere containing 5% CO2, cells were fixed as described above. The number of parasites from up to 200 individual vacuoles was counted for each drug concentration."}, "[4]": {"tested_on": "confluent human fibroblast cells", "experiment": "Effect on confluent human fibroblast cells", "assay_type": "cell-based", "settings": "concentrations up to 50 µM", "description": "Firstly, it was verified that rubreserine concentrations up to 50 µM had no effect on confluent human fibroblast cells. The effect of rubreserine on Toxoplasma gondii parasites was then studied in two situations: • i) in invasion of human fibroblasts, and • ii) in intracellular development of the parasites."}, "[5]": {"tested_on": "Arabidopsis thaliana (ecotype Columbia) seedlings", "experiment": "Arabidopsis thaliana seedling growth on agar plates", "assay_type": "in vivo", "description": "Arabidopsis thaliana (ecotype Columbia) seedlings were grown on plates containing Murashige and Skoog medium, […], plus the various molecules to be tested. Seeds were first sterilized by soaking for 15 minutes in a solution containing 0,095% Tween® 20 and 0,57% sodium hypochlorite before to be laid on the agar medium. The plates were conserved in the dark at 4°C for 48 hours, and then transferred in a green house (20°C, 80% humidity, 150 µE.m^-2.s^-1, 12 hours light period). The number of seedlings at the two leaf stage (rosette stage) was counted after 2 weeks."}, "ADCL": {"target": "T2, ADCL (Escherichia coli, UniProt P28305)", "T2 construct": "made in house", "T2 sequence (P28305 whole entry)": "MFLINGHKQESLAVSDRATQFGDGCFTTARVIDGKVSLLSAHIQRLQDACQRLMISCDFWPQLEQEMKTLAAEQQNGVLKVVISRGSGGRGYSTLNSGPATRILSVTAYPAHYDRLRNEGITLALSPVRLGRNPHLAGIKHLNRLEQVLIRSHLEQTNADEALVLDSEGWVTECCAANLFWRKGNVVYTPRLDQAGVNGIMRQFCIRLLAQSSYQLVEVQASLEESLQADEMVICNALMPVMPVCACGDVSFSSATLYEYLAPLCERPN", "experiment": "Control experiment on ADCL", "assay_type": "biochemical", "settings": "control experiments"}, "[6]": {"tested_on": "3D7 strain of Plasmodium falciparum", "experiment": "Plasmodium falciparum SYBR Green 1-based fluorescence growth assay", "assay_type": "cell-based", "settings": "3D7, 96 h", "description": "The 3D7 strain of Plasmodium falciparum was maintained in O+ blood. A rubreserine 10 mM stock concentration was made up in 1 × PBS pH = 7.5. This stock solution was then diluted serially to obtain the growth curve. Growth inhibition was measured after 96 hours by using an in vitro SYBR Green 1-based fluorescence growth assay, as previously described (T. N. Bennett et al., Antimicrob. Agents Chemoter. (2004) 48 1807-1810; M. Smilkstein et al., Antimicrob. Agents Chemoter. (2004) […] 1803-1806)."}},
  "note": "Like-named read-outs stand apart in the source and are kept apart here.",
  "data": [
    {"molecule": "Nc1ccc(S(=O)(=O)Nc2ncccn2)cc1", "note": "[sulfadiazine, reference compound]", "values": [
      {"measurement": "IC50", "setting": "Toxoplasma gondii", "value": "> 30", "unit": "µM"},
      {"measurement": "IC50", "setting": "[1]", "value": "> 50", "unit": "µM"}
    ]},
    {"molecule": "C=C(OC1C(O)=C(C(=O)O)C=CC1N)C(=O)O", "note": "(stereo not shown) [2-hydroxy-4-amino-4-deoxy chorismate]", "values": [
      {"measurement": "Ki", "setting": "ADCS", "value": 38, "unit": "µM"}
    ]},
    {"molecule": "CN1CCC2(C)C3=CC(=O)C(=O)C=C3N(C)C12", "note": "(stereo not shown) [rubreserine]", "values": [
      {"measurement": "number of intracellular parasites", "setting": "[1]; 20 µM, parasites incubated 5 hours with drug, 15 minutes contact with human cells", "value": "reduced two times"},
      {"measurement": "IC50", "setting": "[1]", "value": "~20", "unit": "µM"},
      {"measurement": "efficiency compared with sulfanilamide and sulfadiazine", "setting": "[1]; invasion of human fibroblasts or intracellular replication", "value": "more efficient"},
      {"measurement": "period of incubation required to obtain maximal inhibition", "setting": "[2]; GAT activity, 10 and 20 µM", "value": 20, "unit": "min"},
      {"measurement": "Ki", "setting": "[2]; bifunctional GAT-ADCS, summary statement, read-out: apparent inhibitory constant (Ki)", "value": "< 10", "unit": "µM"},
      {"measurement": "type of inhibition", "setting": "[2]; decreased Vm for pABA production, increased Km for glutamine", "value": "mixed-type inhibition"},
      {"measurement": "inhibitory effect after incubation with a reducing agent", "setting": "[2]; incubation with dithiothreitol (DTT)", "value": "suppressed the inhibitory effect"},
      {"measurement": "Ki", "setting": "[2]; pABA production, varying glutamine, 100 µM chorismate, 20 minutes incubation with rubreserine, estimated from the curves, read-out: Ki", "value": "~4", "unit": "µM"},
      {"measurement": "Ki", "setting": "[2]; pABA production, varying glutamine, 100 µM chorismate, 20 minutes incubation with rubreserine, estimated from the curves, read-out: αKi", "value": "~9", "unit": "µM"},
      {"measurement": "inhibition in the presence of pABA or 5-FTHF", "setting": "[3]; 20 µM rubreserine with 100 µM pABA or 100 µM 5-FTHF", "value": "significantly reversed the inhibition"},
      {"measurement": "number of parasites in the parasitophorous vacuoles", "setting": "[3]; 24 hours after invasion, 200 vacuoles counted", "value": "decreased"},
      {"measurement": "inhibition in combination with pyrimethamine", "setting": "[3]; rubreserine 20 µM with pyrimethamine 0.4 µM, compared to rubreserine alone", "value": "increased"},
      {"measurement": "effect on confluent human fibroblast cells", "setting": "[4]", "value": "no effect"},
      {"measurement": "growth inhibition with 5-formyl tetrahydrofolate", "setting": "[5]; 200 µM 5-FTHF together with rubreserine, lower extent than pABA", "value": "able to revert the inhibitory effect"},
      {"measurement": "growth inhibition with pABA", "setting": "[5]; agar plates supplemented with 200 µM pABA together with rubreserine", "value": "suppressed or largely reduced"},
      {"measurement": "growth of seedlings", "setting": "[5]; agar plates, various concentrations (50 or 100 µM), two weeks", "value": "dose-dependent growth inhibition"},
      {"measurement": "effect on ADCL", "setting": "ADCL", "value": "no effect"},
      {"measurement": "IC50", "setting": "[6]", "value": "~1.2", "unit": "µM"}
    ]},
    {"molecule": "CN1CCC2(C)c3cc(O)ccc3N(C)C12", "note": "(single isomer, unassigned) [eseroline, reference compound]", "values": [
      {"measurement": "effect on the enzyme activity", "setting": "[2]", "value": "no or little effect"}
    ]}
  ]
}
